Results as given in ChEMBL document CHEMBL1201862, “PubChem BioAssay data set” (2004).
The source made the active and inactive calls.

How the values were obtained:
Streptokinase A = molecular target: T1, Streptokinase A (Streptococcus pyogenes serotype M1, UniProt P10520); test: viability-normalized secreted streptokinase activity reduction – plasminogen activation absorbance, OD405, dose response (AID 1914); assay type: functional, Streptococcus pyogenes M1 GAS;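 note: secreted streptokinase activity via plasminogen activation per viability signal from cell pellet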
T1 sequence (P10520 whole entry): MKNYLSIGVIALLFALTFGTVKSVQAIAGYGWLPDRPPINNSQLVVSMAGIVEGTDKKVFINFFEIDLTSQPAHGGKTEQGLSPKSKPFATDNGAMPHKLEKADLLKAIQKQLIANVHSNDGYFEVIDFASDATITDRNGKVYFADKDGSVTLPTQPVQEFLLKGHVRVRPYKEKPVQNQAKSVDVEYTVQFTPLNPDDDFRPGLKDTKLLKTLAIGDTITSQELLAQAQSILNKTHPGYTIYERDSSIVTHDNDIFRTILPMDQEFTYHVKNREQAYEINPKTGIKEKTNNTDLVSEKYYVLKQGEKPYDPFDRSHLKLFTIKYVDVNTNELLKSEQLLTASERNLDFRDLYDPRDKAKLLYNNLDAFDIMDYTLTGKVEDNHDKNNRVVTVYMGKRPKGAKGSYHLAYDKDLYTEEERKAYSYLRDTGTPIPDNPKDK

Streptococcus = test: GAS UMAA2166 growth inhibition – luminescence, BacTiterGlo, counter-screen for streptokinase expression inhibitor project, dose response (AID 1915); assay type: functional, organism-based;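 note: potency for reduction of bacterial viability or growth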
Bcl-2-related protein A1 = molecular target: T2, Bcl-2-related protein A1 (Mus musculus, UniProt Q07440); assay type: functional;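 note: confirmatory dose–response counterscreen on Bfl-1, used to check hits from a UBC13 polyubiquitin inhibitor campaign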
T2 sequence (Q07440 whole entry): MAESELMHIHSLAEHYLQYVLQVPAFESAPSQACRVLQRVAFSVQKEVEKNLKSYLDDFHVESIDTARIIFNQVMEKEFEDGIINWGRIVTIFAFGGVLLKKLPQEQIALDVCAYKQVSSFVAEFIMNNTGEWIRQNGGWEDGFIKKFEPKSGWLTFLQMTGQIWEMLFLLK

[1] = molecular target: T3, Ubiquitin-conjugating enzyme E2 N (Homo sapiens, UniProt P61088); assay type: functional
T3 sequence (P61088 whole entry): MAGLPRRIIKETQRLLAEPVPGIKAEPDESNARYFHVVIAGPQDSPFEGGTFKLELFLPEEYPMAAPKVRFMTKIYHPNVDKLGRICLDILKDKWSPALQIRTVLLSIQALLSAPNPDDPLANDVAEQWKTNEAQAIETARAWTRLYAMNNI

[2] = molecular target: T3, Ubiquitin-conjugating enzyme E2 N; assay type: functional; remark: listed apart in the source
[3] = molecular target: T4, Replicative DNA helicase DnaB (Mycobacterium tuberculosis, UniProt P9WMR3); test: DnaB intein splicing inhibitors, dose response, biochemical, cell-free fluorescence (AID 449749); assay type: functional
T4 sequence (P9WMR3 whole entry): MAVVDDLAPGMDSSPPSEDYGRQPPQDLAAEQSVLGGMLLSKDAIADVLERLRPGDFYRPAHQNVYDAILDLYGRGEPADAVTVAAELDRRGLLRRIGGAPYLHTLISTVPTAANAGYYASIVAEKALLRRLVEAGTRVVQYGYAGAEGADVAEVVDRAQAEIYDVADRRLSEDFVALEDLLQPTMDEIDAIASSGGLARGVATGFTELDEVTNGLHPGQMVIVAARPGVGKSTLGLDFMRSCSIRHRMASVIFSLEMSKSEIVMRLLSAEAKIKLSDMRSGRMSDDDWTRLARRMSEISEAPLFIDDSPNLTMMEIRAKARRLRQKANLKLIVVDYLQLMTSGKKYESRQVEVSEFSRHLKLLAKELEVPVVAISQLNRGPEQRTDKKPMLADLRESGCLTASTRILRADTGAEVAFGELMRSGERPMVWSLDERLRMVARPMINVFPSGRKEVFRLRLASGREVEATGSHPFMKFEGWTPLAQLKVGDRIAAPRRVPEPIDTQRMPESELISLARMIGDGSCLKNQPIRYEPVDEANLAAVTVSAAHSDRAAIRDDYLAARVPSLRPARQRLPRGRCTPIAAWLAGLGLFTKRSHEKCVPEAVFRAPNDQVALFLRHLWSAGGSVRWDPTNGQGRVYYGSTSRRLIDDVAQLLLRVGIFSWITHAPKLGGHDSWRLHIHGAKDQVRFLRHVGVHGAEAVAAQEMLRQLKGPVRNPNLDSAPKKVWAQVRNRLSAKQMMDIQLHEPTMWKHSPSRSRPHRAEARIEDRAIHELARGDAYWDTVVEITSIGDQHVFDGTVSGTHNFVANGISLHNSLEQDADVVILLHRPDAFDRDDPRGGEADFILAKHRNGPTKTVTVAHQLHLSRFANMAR

Protein RecA = molecular target: T5, Protein RecA (Mycobacterium tuberculosis, UniProt P9WHJ3); test: Fluorescence Cell-Free Homogeneous Dose Retest to Identify Inhibitors of RecA-Intein Splicing Activity. [Related pubchem assays (depositor defined):AID2097, AID2223, AID489010, AID492950]; assay type: functional
T5 sequence (P9WHJ3 whole entry): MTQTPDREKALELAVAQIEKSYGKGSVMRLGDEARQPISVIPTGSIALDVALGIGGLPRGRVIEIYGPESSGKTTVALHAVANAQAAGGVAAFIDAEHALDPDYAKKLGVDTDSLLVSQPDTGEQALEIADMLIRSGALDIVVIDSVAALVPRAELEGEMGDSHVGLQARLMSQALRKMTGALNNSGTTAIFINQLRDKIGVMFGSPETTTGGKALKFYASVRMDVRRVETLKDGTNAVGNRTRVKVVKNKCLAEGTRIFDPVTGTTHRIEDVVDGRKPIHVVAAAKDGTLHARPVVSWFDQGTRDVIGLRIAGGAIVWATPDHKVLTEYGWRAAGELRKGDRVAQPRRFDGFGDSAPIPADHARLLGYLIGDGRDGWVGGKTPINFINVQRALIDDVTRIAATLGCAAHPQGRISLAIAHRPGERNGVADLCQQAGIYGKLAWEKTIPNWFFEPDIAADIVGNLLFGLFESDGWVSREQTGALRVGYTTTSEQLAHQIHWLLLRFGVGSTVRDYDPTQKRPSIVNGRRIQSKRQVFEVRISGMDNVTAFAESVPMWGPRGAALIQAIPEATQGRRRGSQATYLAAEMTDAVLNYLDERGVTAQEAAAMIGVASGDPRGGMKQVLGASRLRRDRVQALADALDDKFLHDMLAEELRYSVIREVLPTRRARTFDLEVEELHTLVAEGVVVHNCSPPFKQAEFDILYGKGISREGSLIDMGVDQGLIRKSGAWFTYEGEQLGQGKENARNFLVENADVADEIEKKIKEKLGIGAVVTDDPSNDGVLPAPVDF

| Compound | EC50 (Streptokinase A) | EC50 (Streptococcus) | IC50 (Bcl-2-related protein A1) | IC50 [1] | IC50 [2] | AC50 [3] | EC50 (Protein RecA) |
| --- | --- | --- | --- | --- | --- | --- | --- |
| COc1cc(/C=C/c2cc[n+](C)cc2)ccc1OCC(=O)Nc1ccc(Cl)c(Cl)c1 | > 150 µM (not active) | 12.9 µM (active) | > 20 µM (inactive) | 7.13 µM (active) | 7.74 µM (active) | > 380 µM (inactive) | 17.2 µM (active) |
| O=C(NCCc1ccccc1)C(c1cccs1)N(C(=O)CCl)c1ccc(Cl)cc1 (stereo unspecified) | – | – | – | – | – | 1.49 µM (active) | 0.233 µM (active) |
| CCCCCCCCCC[N+](C)(C)CC/C=C1/c2ccccc2Sc2ccc(Cl)cc21 | 6.63 µM (active) | 5.62 µM (active) | 8.08 µM (active) | 4.61 µM (active) | 3.77 µM (active) | > 380 µM (inconclusive) | 5.8 µM (active) |
